How the values were obtained:
[1] = target: NHE1 (Homo sapiens, UniProt P19634); test: NHE1 activity in unstimulated melanoma cells; type: cell-based; parameters: endogenous in cells
Experimental: The effect of squalamine on NHE activity was measured to determine which isoforms of NHE were affected by squalamine. NHE activity can be measured under various different cellular conditions. Acid loading a cell activates all of the antiporters and permits measurement of NHE. NHE activity also can be measured after growth factor stimulation of the cell. Additionally, the NHE activity can be measured when the cell is in an unstimulated state, because the antiporters, even if unstimulated, continue to function at a slow, but non-zero rate. In each of these cellular conditions, NHE activity usually is measured in the absence of bicarbonate.
NHE3 in particular is relatively resistant to inhibition by the amilorides.

[2] = test system: VEGF-stimulated bovine retinal endothelial cells; test: Growth of VEGF-stimulated endothelial cells; type: cell-based; details: Bos taurus, Endothelial cell, 48 hours, VEGF 20 ng/ml
Experimental: (§1) In conducting this in vitro analysis, the following cell lines were tested: (a) bovine retinal endothelial cells; (b) 9L and C6 rat glioma cells; (c) human H80 glioma cells; and (d) VX2 rabbit carcinoma cells (the same type as the tumors implanted in the rabbit corneal micropocket assay test described above). The endothelial mitogen which was used in this analysis was VEGF at a concentration of 20 ng/ml.
(§2) The cells were allowed to attach overnight to tissue culture plates containing an optimized growth media. Following attachment, the cells were exposed to solvent only or 5 to increasing concentrations of squalamine (0, 10, 20, 30, 60, and 90 μg squalamine/ml). Cell growth was counted daily for three days using a Coulter Counter. A total of 10,000 cells per well were plated and each experimental concentration was tested in quadruplicate. The results were then averaged. The bovine retinal endothelial cells were grown and treated in an identical manner to the other cell lines, except that the growth of these cells was measured after the addition of 20 ng/ml of human recombinant VEGF to the cells prior to the squalamine treatment.
(§3) Percentage endothelial cell growth inhibition (%I) was determined by the following equation: [formula]

[3] = test system: rat 9L glioma; test: Glioma lethality study, rat glioma implanted into rat brain; type: in vivo; details: 20 mg/kg/day i.p. from three days after implantation
Excerpt: FIG. 10 illustrates survival test results using squalamine in a glioma lethality study with a rat 9L glioma introduced into the brains of healthy rats;
In view of these test results, applicants tested squalamine in an animal model for brain cancer. To test the effect of squalamine on tumors located in the brain, small sections (1 mm3) of existing rat gliomas were taken from rat flanks where they were being maintained and were implanted into the rat brains in two groups of rats. Thus, in this model, the tumors were viable when placed in the rat brain. Three days after implantation, and after some vasculature had developed, treatment with 20 mg/kg/day of squalamine (i.p.) was initiated in one group of rats. The control animals (“vehicle control” in FIG. 10) were given the carrier vehicle only (no squalamine), and the other animals were treated with squalamine (“Squalamine” in FIG. 10).

[4] = test system: Syngeneic mammary carcinoma MCA-4 tumor cells; test: MCA-4 mammary carcinoma tumor growth delay with radiation; type: in vivo, C3Hf/Kam male mice
Experimental: Syngeneic mammary carcinoma MCA-4 tumor cells (5×10^5) were injected intramuscularly into the right legs of C3Hf/Kam male mice (4 months of age). When the tumors reached 6 mm in diameter, the mice were randomly assigned to receive: (a) no treatment, (b) squalamine alone (20 mg/kg/day b.i.d. for 11-14 days), (c) 15 Gy of gamma irradiation, or (d) squalamine plus 15 Gy of gamma rays. Tumor growth was followed until tumors reached at least 12 mm in diameter. The effect of squalamine on tumor radioresponse was determined by absolute and normalized tumor growth delays (AGD and NGD). AGD is defined as the time in days for tumors treated with radiation (or squalamine) to grow from 8 to 12 mm minus the time in days for untreated tumors to grow from 8-12 mm. NGD is defined as the time in days for tumors treated with both squalamine and radiation to grow from 8 to 12 mm minus the time in days for tumors treated with squalamine only to grow from 8 to 12 mm. An enhancement factor (EF) was determined as the ratio of NGD to AGD. The EF for squalamine with 15 Gy gamma rays calculated from the observed times for tumor growth (Table 8) is >1.5.

[5] = test system: bovine retinal endothelial cells not treated with VEGF; test: Growth of endothelial cells not treated with VEGF; type: cell-based; details: 24 and 48 hours; up to 30 μg/ml
Experimental: as §1
as §2, with “except that the growth of these cells was measured after the addition of 20 ng/ml of human recombinant VEGF to the cells prior to the squalamine treatment.” left out
as §3

[6] = test system: capillary beds of young chick embryos; test: Capillary regression in chick embryo capillary beds; type: in vivo; details: one time dose 100 ng
Experimental: A one time dose (100 ng) of squalamine was applied to capillary beds of young chick embryos that were 2-3 days old. After five minutes, this dose of squalamine appeared to have little effect on the capillary beds.
The capillary bed also was observed after sixty minutes. At this time, it was noted that some of the capillary vessels were beginning to re-appear, but only the more major vessels were re-appearing. The small vessels were not re-appearing at that time. Four to five days after the one time squalamine treatment, the effect of the squalamine dose was no longer apparent, but newly formed capillaries in the embryos remained susceptible to squalamine induced regression for a limited time while they were newly formed.
From this test, applicants concluded that squalamine-induced capillary regression is reversible, at least with respect to certain capillaries.

[7] = test system: parental 2008 cell line; test: Human ovarian tumor 2008 xenograft with cisplatin; type: in vivo, female Swiss nude mice; details: cisplatin single dose 4 mg/kg, squalamine 2 mg/kg, days 1-10
Experimental: Human ovarian tumor cells were injected subcutaneously (5×10^7 cells per animal) in the mid-back region of female Swiss nude mice. The human ovarian tumors were either the parental 2008 cell line (cf. R. J. Pietras et al., Oncogene 9, 1829-1838 (1994)) or a transfected variant overexpressing the Her-2/neu receptor. The overexpression of the Her-2/neu receptor is considered to make the resulting xenograft tumors more angiogenic and less responsive to chemotherapy. After one week, animals were randomized to groups receiving no treatment (controls), a single dose of cisplatin (4 mg/kg), daily treatment with squalamine (2 mg/kg, days 1-10) or cisplatin plus squalamine. The growth of tumors was then scored on day 28 following initiation of chemotherapy. The results were very similar with the parental 2008 tumor and the transfected variant overexpressing the Her-2/neu receptor. […] In this xenograft model, the [day 28 mean treated tumor weight increase divided by the day 28 mean control tumor weight increase (T/C)] x 100% was subtracted from 100% to give the tumor growth inhibition (TGI) value for each group.

Sequence of NHE1 (P19634 whole entry, species assumed, canonical isoform): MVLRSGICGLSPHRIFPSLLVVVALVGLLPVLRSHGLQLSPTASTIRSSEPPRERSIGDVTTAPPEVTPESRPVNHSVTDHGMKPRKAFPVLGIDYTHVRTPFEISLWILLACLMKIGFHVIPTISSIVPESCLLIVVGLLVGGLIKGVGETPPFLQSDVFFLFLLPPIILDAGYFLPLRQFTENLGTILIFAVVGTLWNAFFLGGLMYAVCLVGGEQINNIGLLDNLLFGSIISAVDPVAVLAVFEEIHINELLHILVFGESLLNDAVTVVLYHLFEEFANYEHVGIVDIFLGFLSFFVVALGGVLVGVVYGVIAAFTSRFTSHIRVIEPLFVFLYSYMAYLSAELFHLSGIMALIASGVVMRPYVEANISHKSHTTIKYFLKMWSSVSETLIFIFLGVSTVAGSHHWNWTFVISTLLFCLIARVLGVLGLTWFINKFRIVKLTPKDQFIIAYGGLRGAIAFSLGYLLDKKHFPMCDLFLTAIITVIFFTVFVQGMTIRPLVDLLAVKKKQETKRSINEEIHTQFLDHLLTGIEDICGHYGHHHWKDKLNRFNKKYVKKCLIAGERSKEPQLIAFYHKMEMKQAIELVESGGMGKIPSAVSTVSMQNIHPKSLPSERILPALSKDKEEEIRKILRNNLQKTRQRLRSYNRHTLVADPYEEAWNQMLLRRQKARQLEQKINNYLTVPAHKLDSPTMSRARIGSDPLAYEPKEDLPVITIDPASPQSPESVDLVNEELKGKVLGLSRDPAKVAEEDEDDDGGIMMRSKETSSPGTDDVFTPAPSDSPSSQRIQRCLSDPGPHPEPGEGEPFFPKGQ

Structure (SMILES): CC(C)[C@@H](CC[C@@H](C)[C@H]1CC[C@H]2[C@@H]3[C@H](O)C[C@H]4C[C@@H](NCCCNCCCCN)CC[C@]4(C)[C@H]3CC[C@]12C)OS(=O)(=O)O [Squalamine, squalamine]
- NHE1 activity in unstimulated melanoma cells [1]: substantially down regulates the activity of the antiporter
- inhibition at 10 µg/mL ([2]; 10 μg/ml): 38%
- inhibition at 20 µg/mL ([2]; 20 μg/ml): 57%
- inhibition at 30 µg/mL ([2]; 30 μg/ml): 83%
- increase in mean survival time [3]: 38%
- mean survival time [3]: 24.9 days
- AGD ([4]; absolute tumor growth delay): 0 days
- Time to Grow From 8 to 12 mm ([4]; squalamine 20 mg/kg/day b.i.d. for 11-14 days, 15 Gy gamma irradiation): 6 days
- cell proliferation by endothelial cells not treated with VEGF [5]: statistically unaffected
- effect on capillary beds ([6]; after five minutes): little effect
- effect on capillary beds ([6]; after forty minutes): additional capillary regression was observed
- effect on capillary beds ([6]; in twenty minutes): the capillary bed appeared to be disappearing
- Day 28 Mean Tumor Size [7]: 2254 mm^3
- Tumor Growth Inhibition (TGI) Index ([7]; day 28): 41%

Source: patent US6596712B2, “Treatment of carcinomas using squalamine in combination with other anti-cancer agents or modalities” (Genaera Corporation, priority 1996, dated 2003)
